{"source": "ChEMBL document CHEMBL1124314", "about": "“Development of phosphonate derivatives of gadolinium chelates for NMR imaging of calcified soft tissues” (J Med Chem, 1989)", "key": {"Rattus norvegicus [1]": {"species": "Rattus norvegicus", "experiment": "Biodistribution in normal rat heart in the presence of 0.005 M Gd/0.01 M lig at 2 hr", "assay_type": "ADME, organism-based", "settings": "in vivo"}, "Rattus norvegicus [2]": {"species": "Rattus norvegicus", "experiment": "Biodistribution in normal rat heart in the presence of 0.01 M Gd/0.05 M lig", "assay_type": "ADME, organism-based", "settings": "in vivo"}, "Rattus norvegicus [3]": {"species": "Rattus norvegicus", "experiment": "Biodistribution in normal rat heart in the presence of NAC Gd 0.01 M lig at 2 hr", "assay_type": "ADME, organism-based", "settings": "in vivo"}, "Rattus norvegicus [4]": {"species": "Rattus norvegicus", "experiment": "Biodistribution in normal rat kidney in the presence of 0.005 M Gd/0.01 M lig at 2 hr", "assay_type": "ADME, organism-based", "settings": "in vivo"}, "Rattus norvegicus [5]": {"species": "Rattus norvegicus", "experiment": "Biodistribution in normal rat kidney in the presence of 0.01 M Gd/0.05 M lig", "assay_type": "ADME, organism-based", "settings": "in vivo"}, "Rattus norvegicus [6]": {"species": "Rattus norvegicus", "experiment": "Biodistribution in normal rat kidney in the presence of NAC Gd 0.01 M lig at 2 hr", "assay_type": "ADME, organism-based", "settings": "in vivo"}, "Rattus norvegicus [7]": {"species": "Rattus norvegicus", "experiment": "Biodistribution in normal rat liver in the presence of 0.005 M Gd/0.01 M lig at 2 hr", "assay_type": "ADME, organism-based", "settings": "in vivo"}, "Rattus norvegicus [8]": {"species": "Rattus norvegicus", "experiment": "Biodistribution in normal rat liver in the presence of 0.01 M Gd/0.05 M lig", "assay_type": "ADME, organism-based", "settings": "in vivo"}, "Rattus norvegicus [9]": {"species": "Rattus norvegicus", "experiment": "Biodistribution in normal rat lung in the presence of 0.005 M Gd/0.01 M lig at 2 hr", "assay_type": "ADME, organism-based", "settings": "in vivo"}, "Rattus norvegicus [10]": {"species": "Rattus norvegicus", "experiment": "Biodistribution in normal rat lung in the presence of 0.01 M Gd/0.05 M lig", "assay_type": "ADME, organism-based", "settings": "in vivo"}, "Rattus norvegicus [11]": {"species": "Rattus norvegicus", "experiment": "Biodistribution in normal rat lung in the presence of NAC Gd 0.01 M lig at 2 hr", "assay_type": "ADME, organism-based", "settings": "in vivo"}, "Rattus norvegicus [12]": {"species": "Rattus norvegicus", "experiment": "Biodistribution in normal rat blood in the presence of 0.005 M Gd/0.01 M lig at 2 hr", "assay_type": "ADME, organism-based", "settings": "in vivo"}, "Rattus norvegicus [13]": {"species": "Rattus norvegicus", "experiment": "Biodistribution in normal rat blood in the presence of 0.01 M Gd/0.05 M lig", "assay_type": "ADME, organism-based", "settings": "in vivo"}, "Rattus norvegicus [14]": {"species": "Rattus norvegicus", "experiment": "Biodistribution in normal rat blood in the presence of NAC Gd 0.01 M lig at 2 hr", "assay_type": "ADME, organism-based", "settings": "in vivo"}, "Rattus norvegicus [15]": {"species": "Rattus norvegicus", "experiment": "Biodistribution in normal rat bone in the presence of 0.005 M Gd/0.01 M lig at 2 hr", "assay_type": "ADME, organism-based, Bone element", "settings": "in vivo"}, "Rattus norvegicus [16]": {"species": "Rattus norvegicus", "experiment": "Biodistribution in normal rat bone in the presence of 0.01 M Gd/0.05 M lig", "assay_type": "ADME, organism-based, Bone element", "settings": "in vivo"}, "Rattus norvegicus [17]": {"species": "Rattus norvegicus", "experiment": "Biodistribution in normal rat bone in the presence of NAC Gd 0.01 M lig at 2 hr", "assay_type": "ADME, organism-based, Bone element", "settings": "in vivo"}, "Rattus norvegicus [18]": {"species": "Rattus norvegicus", "experiment": "Biodistribution in normal rat muscle in the presence of 0.005 M Gd/0.01 M lig at 2 hr", "assay_type": "ADME, organism-based, Muscle tissue", "settings": "in vivo"}, "Rattus norvegicus [19]": {"species": "Rattus norvegicus", "experiment": "Biodistribution in normal rat muscle in the presence of 0.01 M Gd/0.05 M lig", "assay_type": "ADME, organism-based, Muscle tissue", "settings": "in vivo"}, "Rattus norvegicus [20]": {"species": "Rattus norvegicus", "experiment": "Biodistribution in normal rat muscle in the presence of NAC Gd 0.01 M lig at 2 hr", "assay_type": "ADME, organism-based, Muscle tissue", "settings": "in vivo"}, "Rattus norvegicus [21]": {"species": "Rattus norvegicus", "experiment": "Biodistribution in normal rat spleen in the presence of 0.005 M Gd/0.01 M lig at 2 hr", "assay_type": "ADME, organism-based", "settings": "in vivo"}, "Rattus norvegicus [22]": {"species": "Rattus norvegicus", "experiment": "Biodistribution in normal rat spleen in the presence of 0.01 M Gd/0.05 M lig", "assay_type": "ADME, organism-based", "settings": "in vivo"}, "Rattus norvegicus [23]": {"species": "Rattus norvegicus", "experiment": "Biodistribution in normal rat spleen in the presence of NAC Gd 0.01 M lig at 2 hr", "assay_type": "ADME, organism-based", "settings": "in vivo"}, "Rattus norvegicus [24]": {"species": "Rattus norvegicus", "experiment": "Uptake of [GD] in bone 1 hr post injection with 0.002 of the compound", "assay_type": "functional, Bone element"}, "Rattus norvegicus [25]": {"species": "Rattus norvegicus", "experiment": "Uptake of [GD] in bone 1 h post injection with 0.01 of the compound", "assay_type": "functional, Bone element"}, "Rattus norvegicus [26]": {"species": "Rattus norvegicus", "experiment": "Uptake of [GD] in bone 1 hr post injection with 0.025 of the compound", "assay_type": "functional, Bone element"}, "Rattus norvegicus [27]": {"species": "Rattus norvegicus", "experiment": "Uptake of [GD] in bone 1 hr post injection with NCA GD dose", "assay_type": "functional, Bone element"}, "[28]": {"experiment": "Uptake of [GD] in bone 1 hr post injection with NCA GD dose to that of muscle", "assay_type": "functional, Muscle tissue"}, "[29]": {"experiment": "Ratio of uptake of [GD] in bone 1 hr post injection with 0.002 to that of blood", "assay_type": "functional"}, "[30]": {"experiment": "Ratio of uptake of [GD] in bone 1 hr post injection with 0.002 to that of muscle", "assay_type": "functional"}, "[31]": {"experiment": "Ratio of uptake of [GD] in bone 1 hr post injection with 0.01 to that of blood", "assay_type": "functional"}, "[32]": {"experiment": "Ratio of uptake of [GD] in bone 1 hr post injection with 0.01 to that of muscle", "assay_type": "functional"}, "[33]": {"experiment": "Ratio of uptake of [GD] in bone 1 hr post injection with 0.025 to that of blood", "assay_type": "functional"}, "[34]": {"experiment": "Ratio of uptake of [GD] in bone 1 hr post injection with 0.025 to that of muscle", "assay_type": "functional"}, "[35]": {"experiment": "Ratio of uptake of [GD] in bone 1 hr post injection with NCA GD dose to that of blood", "assay_type": "functional"}, "Rattus norvegicus [36]": {"species": "Rattus norvegicus", "experiment": "Biodistribution in normal rat liver in the presence of NAC Gd 0.01 M lig at 2 hr", "assay_type": "ADME, organism-based", "settings": "in vivo"}}, "data": [{"smiles": "O=P(O)(O)C(N(CCN(C(P(=O)(O)O)P(=O)(O)O)C(P(=O)(O)O)P(=O)(O)O)C(P(=O)(O)O)P(=O)(O)O)P(=O)(O)O", "values": [{"measurement": "ID/organ", "setting": "Rattus norvegicus [1]", "result": 0.04, "unit": "%"}, {"measurement": "ID/organ", "setting": "Rattus norvegicus [2]", "result": 0.13, "unit": "%"}, {"measurement": "ID/organ", "setting": "Rattus norvegicus [3]", "result": 0.004, "unit": "%"}, {"measurement": "ID/organ", "setting": "Rattus norvegicus [4]", "result": 0.4, "unit": "%"}, {"measurement": "ID/organ", "setting": "Rattus norvegicus [5]", "result": 0.38, "unit": "%"}, {"measurement": "ID/organ", "setting": "Rattus norvegicus [6]", "result": 0.29, "unit": "%"}, {"measurement": "ID/organ", "setting": "Rattus norvegicus [7]", "result": 1.6, "unit": "%"}, {"measurement": "ID/organ", "setting": "Rattus norvegicus [8]", "result": 0.5, "unit": "%"}, {"measurement": "ID/organ", "setting": "Rattus norvegicus [9]", "result": 0.1, "unit": "%"}, {"measurement": "ID/organ", "setting": "Rattus norvegicus [10]", "result": 0.09, "unit": "%"}, {"measurement": "ID/organ", "setting": "Rattus norvegicus [11]", "result": 0.02, "unit": "%"}, {"measurement": "ID/organ", "setting": "Rattus norvegicus [12]", "result": 1.7, "unit": "%"}, {"measurement": "ID/organ", "setting": "Rattus norvegicus [13]", "result": 0.7, "unit": "%"}, {"measurement": "ID/organ", "setting": "Rattus norvegicus [14]", "result": 0.045, "unit": "%"}, {"measurement": "ID/organ", "setting": "Rattus norvegicus [15]", "result": 42.9, "unit": "%"}, {"measurement": "ID/organ", "setting": "Rattus norvegicus [16]", "result": 35, "unit": "%"}, {"measurement": "ID/organ", "setting": "Rattus norvegicus [17]", "result": 47, "unit": "%"}, {"measurement": "ID/organ", "setting": "Rattus norvegicus [18]", "result": 2.4, "unit": "%"}, {"measurement": "ID/organ", "setting": "Rattus norvegicus [19]", "result": 2, "unit": "%"}, {"measurement": "ID/organ", "setting": "Rattus norvegicus [20]", "result": 0.3, "unit": "%"}, {"measurement": "ID/organ", "setting": "Rattus norvegicus [21]", "result": 0.02, "unit": "%"}, {"measurement": "ID/organ", "setting": "Rattus norvegicus [22]", "result": 0.009, "unit": "%"}, {"measurement": "ID/organ", "setting": "Rattus norvegicus [23]", "result": 0.004, "unit": "%"}, {"measurement": "ID", "setting": "Rattus norvegicus [24]", "result": 53.1, "unit": "%"}, {"measurement": "ID", "setting": "Rattus norvegicus [25]", "result": 50.1, "unit": "%"}, {"measurement": "ID", "setting": "Rattus norvegicus [26]", "result": 35.4, "unit": "%"}, {"measurement": "ID", "setting": "Rattus norvegicus [27]", "result": 54.8, "unit": "%"}, {"measurement": "Ratio", "setting": "[28]", "result": 51.2}, {"measurement": "Ratio", "setting": "[29]", "result": 73.3}, {"measurement": "Ratio", "setting": "[30]", "result": 43.5}, {"measurement": "Ratio", "setting": "[31]", "result": 37.3}, {"measurement": "Ratio", "setting": "[32]", "result": 27.7}, {"measurement": "Ratio", "setting": "[33]", "result": 20.4}, {"measurement": "Ratio", "setting": "[34]", "result": 12.4}, {"measurement": "Ratio", "setting": "[35]", "result": 91.8}, {"measurement": "ID/organ", "setting": "Rattus norvegicus [36]", "result": 0.22, "unit": "%"}]}]}
